Measured values taken from US20170306409A1, “CANCER PATIENT SELECTION FOR ADMINISTRATION OF WNT SIGNALING INHIBITORS USING RNF43 MUTATION STATUS” (NOVARTIS AG, priority 2012, published 2017).

Experiments:
Type in all cases: cell-based, human
[1] = tested on: AXIN2, pancreatic cancer cell lines; test: AXIN2 expression across pancreatic cancer cell line panel; conditions: 22 of 29 cell lines
Experimental: (§1) For reverse transcription and quantitative PCR (qPCR), total RNA was extracted from cells or tumors using the RNeasy Plus Mini Kit (Qiagen). 1 μg of RNA were reverse transcribed with Taqman Reverse Transcription Reagents (Applied Biosystems) according to the manufacturer's instruction. Quantitative PCR was performed in 12 μl reactions consisting of 0.6 μl of 20× Taqman probe and PCR primer mix, 6 μl 2× Taqman FAST Advanced Master Mix (Applied Biosystems), and 5.4 μl diluted cDNA template. The thermocycling conditions utilized were 20 seconds at 95° C., followed by 40 cycles of 1 second at 95° C. and 20 seconds at 60° C. All experiments were performed in quadruplicates. Gene expression analysis was performed using the comparative ΔΔCT method and normalized with the housekeeping gene GUSB or 18S. The Taqman probes were purchased from Applied Biosystems.

[2] = tested on: PL45; test: foci formation assay; conditions: 1 μM LGK974
Experimental: (§2) To assay foci formation, 6,000˜12,000 cells of indicated cell lines were seeded in 6 well tissue culture plate in 2 ml growth media. After overnight culture for cell attachment, media was replaced with fresh growth media containing 1 μM LGK974 in the absence and presence of recombinant Wnt3a. For DOX-inducible β-catenin shRNA experiment, cells were treated 5 ng/ml doxycycline. When cell colonies reached desirable size, cells were fixed with 4% formalin in PBS and stained with crystal violet solution. After a few washes, plates were dried and imaged.
(§3) Identification of pancreatic cancer lines containing inactivation mutation of RNF43. Discovery of LGK974, a potent and selective inhibitor of Porcupine, offered us a unique chemical tool to systemically examine Wnt dependency in a large panel of cancer cell lines. We tested LGK974 in a large panel of pancreatic cancer cell lines using foci formation assay. Foci formation assay was utilized because it is more sensitive than routine growth assays such as CellTiter-Glo, and it is less affected by the different growth rates of various cell lines.

[3] = tested on: Capan-2; test: foci formation assay; conditions: 1 μM LGK974
Experimental: as §2, §3

[4] = tested on: KP4; test: foci formation assay; conditions: 1 μM LGK974
Experimental: as §2, §3

[5] = tested on: T3M4; test: foci formation assay; conditions: 1 μM LGK974
Experimental: as §2, §3

[6] = tested on: PK45H; test: foci formation assay; conditions: 1 μM LGK974
Experimental: as §2, §3

[7] = tested on: Panc08.13; test: foci formation assay; conditions: 1 μM LGK974
Experimental: as §2, §3

[8] = tested on: PK59; test: foci formation assay; conditions: 1 μM LGK974
Experimental: as §2, §3

[9] = tested on: SW1990; test: foci formation assay; conditions: 1 μM LGK974
Experimental: as §2, §3

[10] = tested on: MIA CaPa-2; test: foci formation assay; conditions: 1 μM LGK974
Experimental: as §2, §3

[11] = tested on: HuPT4; test: foci formation assay; conditions: 1 μM LGK974
Experimental: as §2, §3

[12] = tested on: L3.3; test: foci formation assay; conditions: 1 μM LGK974
Experimental: as §2, §3

[13] = tested on: Axin2, Panc05.04; test: Axin2 qPCR assay (pathway inhibition)
Experimental: as §1

[14] = tested on: Axin2, PSN-1; test: Axin2 qPCR assay (pathway inhibition)
Experimental: as §1

[15] = tested on: Axin2, T3M4; test: Axin2 qPCR assay (pathway inhibition)
Experimental: as §1

[16] = tested on: Axin2, CFPAC-1; test: Axin2 qPCR assay (pathway inhibition)
Experimental: as §1

[17] = tested on: Axin2, KP2; test: Axin2 qPCR assay (pathway inhibition)
Experimental: as §1

[18] = tested on: Axin2, SU86.86; test: Axin2 qPCR assay (pathway inhibition)
Experimental: as §1

[19] = tested on: Axin2, PK1; test: Axin2 qPCR assay (pathway inhibition)
Experimental: as §1

[20] = tested on: Axin2, PL45; test: Axin2 qPCR assay (pathway inhibition)
Experimental: as §1

[21] = tested on: Axin2, QGP-1; test: Axin2 qPCR assay (pathway inhibition)
Experimental: as §1

[22] = tested on: Axin2, BxPC3; test: Axin2 qPCR assay (pathway inhibition)
Experimental: as §1

[23] = tested on: Axin2, Panc03.27; test: Axin2 qPCR assay (pathway inhibition)
Experimental: as §1

[24] = tested on: Axin2, Capan-2; test: Axin2 qPCR assay (pathway inhibition)
Experimental: as §1

[25] = tested on: Axin2, PaTu-8988T; test: Axin2 qPCR assay (pathway inhibition)
Experimental: as §1

[26] = tested on: Axin2, HPAFII; test: Axin2 qPCR assay (pathway inhibition)
Experimental: as §1

[27] = tested on: Axin2, HuPT3; test: Axin2 qPCR assay (pathway inhibition)
Experimental: as §1

[28] = tested on: Axin2, HuPT4; test: Axin2 qPCR assay (pathway inhibition)
Experimental: as §1

[29] = tested on: Axin2, SW1990; test: Axin2 qPCR assay (pathway inhibition)
Experimental: as §1

[30] = tested on: Axin2, KP4; test: Axin2 qPCR assay (pathway inhibition)
Experimental: as §1

[31] = tested on: Axin2, KP-1NL; test: Axin2 qPCR assay (pathway inhibition)
Experimental: as §1

[32] = tested on: Axin2, DanG; test: Axin2 qPCR assay (pathway inhibition)
Experimental: as §1

[33] = tested on: Axin2, Panc04.03; test: Axin2 qPCR assay (pathway inhibition)
Experimental: as §1

[34] = tested on: Axin2, Capan-1; test: Axin2 qPCR assay (pathway inhibition)
Experimental: as §1

[35] = tested on: Axin2, PaTu-8988S; test: Axin2 qPCR assay (pathway inhibition)
Experimental: as §1

[36] = tested on: Axin2, PK59; test: Axin2 qPCR assay (pathway inhibition)
Experimental: as §1

[37] = tested on: Axin2, PK45H; test: Axin2 qPCR assay (pathway inhibition)
Experimental: as §1

Compound: Cc1cc(-c2ncc(CC(=O)Nc3ccc(-c4cnccn4)cn3)cc2C)ccn1 [LGK974, 2-[5-methyl-6-(2-methylpyridin-4-yl)pyridin-3-yl]-N-[5-(pyrazin-2-yl)pyridin-2-yl]acetamide]
- share of pancreatic cancer cell lines with decreased expression of AXIN2 [1]: 76%
- Growth inhibition in foci formation assay [2]: not sensitive and No
- Growth inhibition in foci formation assay [3]: strong growth inhibitory activity and strongly inhibited and Yes
- Growth inhibition in foci formation assay [4]: No
- Growth inhibition in foci formation assay [5]: No
- Growth inhibition in foci formation assay [6]: No
- Growth inhibition in foci formation assay [7]: No
- Growth inhibition in foci formation assay [8]: No
- Growth inhibition in foci formation assay [9]: No
- Growth inhibition in foci formation assay [10]: No
- Growth inhibition in foci formation assay [11]: No
- Growth inhibition in foci formation assay [12]: No
- Pathway inhibition in Axin2 qPCR assay [13]: Yes
- Pathway inhibition in Axin2 qPCR assay [14]: Yes
- Pathway inhibition in Axin2 qPCR assay [15]: No
- Pathway inhibition in Axin2 qPCR assay [16]: No
- Pathway inhibition in Axin2 qPCR assay [17]: Yes
- Pathway inhibition in Axin2 qPCR assay [18]: Yes
- Pathway inhibition in Axin2 qPCR assay [19]: Yes
- Pathway inhibition in Axin2 qPCR assay [20]: No
- Pathway inhibition in Axin2 qPCR assay [21]: No
- Pathway inhibition in Axin2 qPCR assay [22]: Yes
- Pathway inhibition in Axin2 qPCR assay [23]: Yes
- Pathway inhibition in Axin2 qPCR assay [24]: Yes
- Pathway inhibition in Axin2 qPCR assay [25]: Yes
- Pathway inhibition in Axin2 qPCR assay [26]: Yes
- Pathway inhibition in Axin2 qPCR assay [27]: Yes
- Pathway inhibition in Axin2 qPCR assay [28]: No
- Pathway inhibition in Axin2 qPCR assay [29]: Yes
- Pathway inhibition in Axin2 qPCR assay [30]: No
- Pathway inhibition in Axin2 qPCR assay [31]: Yes
- Pathway inhibition in Axin2 qPCR assay [32]: No
- Pathway inhibition in Axin2 qPCR assay [33]: No
- Pathway inhibition in Axin2 qPCR assay [34]: No
- Pathway inhibition in Axin2 qPCR assay [35]: Yes
- Pathway inhibition in Axin2 qPCR assay [36]: Yes
- Pathway inhibition in Axin2 qPCR assay [37]: No
